Laboratory results: US9457044B2, “Methods and compositions for wound healing” (CoDa Therapeutics, Inc., priority 2006, dated 2016)

Columns and labels:
TGF-β1 mRNA = test: Real-Time PCR of TGF-β1 at wound sites; type: in vivo, mice
Protocol: (§1) Male, 8 week old, ICR mice were used in the following experiments. All the mice were kept under specific pathogen-free conditions in an environmentally controlled clean room at University College London and all the experiments were carried out under UK Home Office regulations. Mice were anaesthetized by halothane inhalation. Four full-thickness excisional wounds of 6 mm diameter were made on the shaved back on either side of the dorsal midline with a 6 mm biopsy punch (Kai Industries). To each pair of wounds a single topical application of 50 μl of 1 μM Cx43 as ODN (SEQ. ID No. 2) (Sigma-Genosys) in 30% Pluronic F-127 gel (Sigma-Aldrich), chilled on ice, was made to one wound, and an identical application of 1 μM sense control sODNs was made to the other. […] R. and Becker, D. L. (2003). Targeting connexin 43 expression accelerates the rate of wound repair. Curr Biol 13, 1697-703). Each wound region was digitally photographed at the indicated time intervals, and the areas of the wounds were calculated. All wound areas were expressed as percentages of the initial wound areas. […]
(§2) Gene specific primers and probe were obtained as TaqMan® Gene Expression Assays (Applied Biosystems) for Cx43, Ccl2, Co1α1, TNFα and TGFβ1. […] Each sample was analyzed in duplicate. […]

TNF-α mRNA = test: Real-Time PCR of TNF-α at wound sites; type: in vivo, mice; conditions: day 7; P<0.05 versus control sODN
Protocol: as §1, §2

fibroblast like cells = test: Fibroblast-like cell count at wound margin (rhodamine phalloidin/DAPI); type: in vivo, mice; conditions: 2 day wounds; P<0.01
Protocol: as §1
(§3) A treatment-blinded observer counted MPO-positive neutrophils and F4/80-positive macrophages in the wound bed (defined as the area surrounded by unwounded skin, fascia, regenerated epidermis, and eschar) in 3 random high-power fields of 0.332 mm^2. […]

Cx43 protein = conditions: within two hours; Becker 1999, McGonnell 2001, Qiu 2003; cited from earlier work
IGFBP-2 = test: Growth factor/cytokine antibody array of chimera: IGFBP-2; type: cell-based, human; conditions: after two weeks in culture
Protocol: Cell denuded pig stroma chimeras were cultured for two weeks and then assessed using a growth factor/cytokine antibody array (measures protein levels of 120 different growth factors/cytokines.
After two weeks in culture the chimeras were cut in half: one half for histological analysis, and the other for growth factor and cytokine array analysis. For growth factor and cytokine analysis the central stromal region (with fully recovered human cell epithelium) and partially repopulated stroma (human keratocytes) was removed and homogenised separately from the human limbal rim which contains stem cell populations. The homogenates were run on a growth factor/cytokine array (FIG. 15) and analysis of growth factor levels performed using densitometry analysis of the array membranes.

Swiss 3T3 fibroblasts = test: Cell migration assay by wounding (fibroblast scrape wound assay); type: cell-based; conditions: 20 μM for two hours before scrape wound; 4 hours after wounding
Protocol: Swiss 3T3 fibroblasts were grown in Dulbecco's modified Eagle's medium (DMEM; Gibco) supplemented with 10% fetal calf serum (Labtech) and 1% penicillinstreptomycin solution (Sigma, Poole) in a 5% CO2 incubator at 37° C. Unless otherwise stated, the cells were maintained in this medium for most experiments. The cells were passaged by trypsinization and used at passages 6-10 at a confluency of Z 90%. Cells were plated on 13 mm glass coverslips in 24-well dishes (Nunc) with 4−5×10^5 cells per well containing 1 ml of medium. Cells reached confluency after 72 hours and were then used for experimentation.
The fibroblast cell assay involved creating a “wound” in a confluent monolayer of fibroblast cells. This widely used in vitro technique mimics the behaviour of migrating cells in vivo (Lampugnani, M. G. (1999) Cell Migration into a wounded area in vitro. Methods Mol Biol 96: 177-182). Wounding was performed by drawing a microelectrode across the coverslip, producing a lesion of standard width. Phase contrast images were acquired using a ×5 objective on a Zeiss inverted microscope with an incubation chamber at 370 and 5% CO2. […] Migration was quantified by image analysis, measuring the change in wound area (pixels) using Image J software (NIH). […]

MPO-positive neutrophils = test: Neutrophil recruitment into wound site (anti-MPO staining); type: in vivo, mice; conditions: day 1 and 2, versus control
Protocol: as §1, §3

GTAATTGCGGCAGGAGGAATTGTTTCTGTC (antisense GTAATTGCGGCAGGAGGAATTGTTTCTGTC; in Pluronic F-127 gel, further chemistry not given here) [Cx43 asODN]
expression of TGF-β1 mRNA versus control sODN-treated wounds (TGF-β1 mRNA; day 2 after the injury, P<0.05): significantly increased
expression of TGF-β1 mRNA, control versus treated wounds (TGF-β1 mRNA; days 1 and 7): no difference
expression level of TNF-α mRNA (TNF-α mRNA): significantly reduced
number of elongated fibroblast like cells at the wound margin (mean per field) (fibroblast like cells): 99.2
knockdown of Cx43 protein at the site of delivery (Cx43 protein): significant knockdown
level of IGFBP-2 in limbal rim and stroma compared with untreated controls (IGFBP-2): higher levels
rate of wound closure in fibroblast cultures compared to controls (Swiss 3T3 fibroblasts): significantly (P=0.02) enhanced
neutrophil numbers at wound site (MPO-positive neutrophils): significantly reduced
